The values below come from paper PMC7321108, “1-Hydroxyanthraquinones Containing Aryl Substituents as Potent and Selective Anticancer Agents” (Molecules, 2020).

One data set deals with pUC19 DNA plasmid. Description: Gel retardation (electrophoretic mobility shift) assay. The settings on record: 0.5 µg pUC19 plasmid, 0.025 µM test compound, room temperature 1 h, agarose gel 60 V 4 h. The class given is binding. On the procedure: The interaction of compounds 13, 15, 16, 23, 25 27, 28, 35, 40 and 44 with DNA was experimentally confirmed by study of the electrophoretic mobility. For this the gel retardation assay was performed. Doxorubicin in different concentration was used as a positive control. In order to avoid destruction of the possible complex of DNA with compounds, the electrophoresis was performed at low voltage. The results are presented at Figure 3.
To study the interaction between test compounds and DNA the electrophoretic mobility shift assay was performed. 0.5 µg of pUC19 plasmid was incubated with 0.025 µM of test compounds at room temperature for 1 h. After that the electrophoresis was performed in agarose gel (1/2%) in TBE buffer (60 V, 4 h). For visualization the gel was staining with ethidium bromide and analyzed with Bio-Rad gel documentation system.
For orientation: A gel shift assay detects complexes by their altered migration in electrophoresis.

Another data set deals with SNB-19 cells. As to the kind of experiment: Cell cycle analysis by flow cytometry (Hoechst 33342), SNB-19. The class given is cell-based, human. Conditions: SNB-19, treated at GI50 concentration, 24 h. As to the method: Due to the fact that the implementation of the antitumor potential of the currently existing antitumor agents is carried out by acting on various biological targets, at the next stage we performed the cell cycle analysis and DNA synthesis. Cell cycle analysis of 1-hydroxy-4-phenyl-9,10-anthraquinone 13, 1-hydroxy-4-(2,3-dimethoxyphenyl)-9,10- anthraquinone 16, 1-hydroxy-4-(furan-3-yl)-9,10-anthraquinone 23 and 1-hydroxy- 2-(2,3-dimethoxyphenyl)-9,10-anthraquinone 28 against SNB-19 cells for 24 h produced interesting results. After examining the data for compounds 13 and 16 (Table 3, Figure 4C,D), good number of cells are distributed in S phase, i.e., initiated DNA replication mechanism and also in G0/G1 phase, i.e., initial phase of cell cycle. G1 and G2 are the growth phases in cell cycle analysis, whereas S phase is a synthetic phase wherein DNA replication and DNA synthesis take place. The 2-aryl substituted compound 28 initiated the G0/G1 phase in analogy with doxorubicin and mitomycin. […] Further, compounds play a vital role in controlling the regulation of Sub-G1 and G2/M phases. Some difference in the mechanism of operation of 4-aryl substituted 13,16 and 2-aryl substituted 9,10-anthraquinones 28 has been observed during the progression of cell cycle like: S phase was highly disturbed by 13; G0/G1 phase was highly disturbed by 28. […] This observation can be explained by the influence on the cell repair systems that respond to the intercalation of compounds in DNA. […] Further, mitoxantrone promotes the arrest of S phase of cell cycle.
For cell cycle analysis cells were seeded in 6-well plates (30,000 per plate) and incubate for adhesion for 24 h. […] Cells were washed with PBS twice, harvested, pelleted and resuspended in 0.5 mL of PBS. For staining the Hoechst 33342 Ready Flow Reagent (Invitrogen) was used according to the instruction. CytoFLEX flow cytometer (Beckman Coulter) was used for analysis. The results are presented as a percentage of cell population standing in different stages of the cell cycle.
On the technique in general: Flow cytometry measures light scatter and fluorescence of single cells or particles in a stream.

Data set [1] is described as follows: MTT cytotoxicity assay, normal hTERT-immortalized lung fibroblasts. It counts as cell-based. Conditions: human, hTERT-immortalized lung fibroblasts (normal cell line), 72 h incubation, mean ± SEM of three experiments, read-out: Cytotoxicity (GI50) against hTERT Lung Fibroblasts. An outline of the steps:
(§1)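 72 h compound exposure (DMSO vehicle), RPMI-1640/10% calf serum, 37 °C, 5% CO2; triplicates. 1% MTT 4 h, DMSO solubilization, OD 450 nm. GI50 = conc. giving 50% cell death / 2-fold OD drop vs untreated wells; mean ± SEM of three independent experiments.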
Background: Formazan colour is commonly taken as a measure of viable cells.

A further data set relates to T98G glioblastoma cells. As to the kind of experiment: MTT cytotoxicity assay, T98G. It counts as cell-based. The settings on record: Homo sapiens, 72 h incubation, mean ± SEM of three experiments, read-out: Cytotoxicity (GI50) against T98G. A digest of the protocol: as §1
Data set [2] deals with SNB-19 glioblastoma cells. Description: MTT cytotoxicity assay, SNB-19. The class given is cell-based. The settings on record: Homo sapiens, 72 h incubation, mean ± SEM of three experiments, read-out: Cytotoxicity (GI50) against SNB-19. An outline of the steps: as §1

The GI50 is the concentration at which growth is held to half of that of the control.

Regarding `COc1cccc(-c2ccc(O)c3c2C(=O)c2ccccc2C3=O)c1OC` [Compound 16, 1-(2,3-Dimethoxyphenyl)-4-hydroxyanthracene-9,10-dione], the “Retardation of plasmid DNA (electrophoretic mobility)” value with pUC19 DNA plasmid is on record as “cause a retardation of plasmid DNA”. In addition, in the data set on SNB-19 cells, the “Population (% Cell Distribution) G0/G1” value is 36.6%, the “Population (% Cell Distribution) G2/M” value is 18.6%, the “Population (% Cell Distribution) S” value came out at 34.3% and the “Population (% Cell Distribution) Sub-G1” value was 3.0%. The “Population (% Cell Distribution) Super-G2” value in the data set with SNB-19 cells turned out to be 7.6%. For the same compound, the GI50 at 72 h in data set [1] was 48 ± 3.87 µM. For the same compound, in the data set on T98G glioblastoma cells, the 50% growth inhibitory concentration (GI50) is 25.1 ± 1.04 µM. Moreover, the GI50 in data set [2] came to 9.7 ± 0.41 µM.

With `O=C1c2ccccc2C(=O)c2c(-c3ccccc3)ccc(O)c21` [Compound 13, 1-Hydroxy-4-phenylanthracene-9,10-dione], the “Retardation of plasmid DNA (electrophoretic mobility)” value in the data set with pUC19 DNA plasmid was “cause a retardation of plasmid DNA”. In the data set on SNB-19 cells, the “Population (% Cell Distribution) G0/G1” value is 29.0%, the “Population (% Cell Distribution) G2/M” value is listed as 13.9%, the “Population (% Cell Distribution) S” value is 48.5% and the “Population (% Cell Distribution) Sub-G1” value amounted to 4.0%. In the data set on SNB-19 cells, the “Population (% Cell Distribution) Super-G2” value was determined as 4.6%. In data set [1], the 50% growth inhibitory concentration (GI50) at 72 h turned out to be 67.1 ± 8.06 µM. Further, the GI50 in the data set with T98G glioblastoma cells was 14.1 ± 0.65 µM. Moreover, in data set [2], the 50% growth inhibitory concentration (GI50) was 24.3 ± 1.08 µM.
